These are literature values, as cited in patent publication US10232044B2, “Controlled release aural pressure modulator compositions and methods for the treatment of OTIC disorders” (Otonomy, Inc., priority 2008, dated 2019).

For data set [1], the system named is endolymphatic hydrops.
The subject of data set [2] is intra-ocular pressure. The note with it: glaucoma patients.
In data set [3] the test system is 8-isoprostaglandin F2α. The note with it: sensorineural hearing loss animal models, noise exposure.
For data set [4], the target named is constitutively activated D136A mutant VP2 receptor (Homo sapiens, UniProt P30518, D136A).

Like-named read-outs stand apart in the source and are kept apart here.

`NC(=O)CC[C@@H]1NC(=O)[C@H](Cc2ccccc2)NC(=O)[C@H](Cc2ccc(O)cc2)NC(=O)[C@@H](N)CSSC[C@@H](C(=O)N2CCC[C@H]2C(=O)N[C@@H](CCCN=C(N)N)C(=O)NCC(N)=O)NC(=O)[C@H](CC(N)=O)NC1=O` [VP]: the endolymphatic hydrops entry is “induces endolymphatic hydrops” in data set [1] (chronic administration, guinea pigs) and “development of endolymphatic hydrops” in data set [1] (systemic administration, guinea pig). Regarding `CCCCCCCC(=O)CC[C@@H]1[C@@H](C/C=C\CCCC(=O)O)[C@@H](O)C[C@H]1O` [unoprostone], the intra-ocular pressure result in data set [2] is recorded as “reduce intra-ocular pressure”. Regarding `CCNC(=O)CCC/C=C\C[C@@H]1[C@@H](/C=C/[C@@H](O)CCc2ccccc2)[C@H](O)C[C@@H]1O` [bimtoprost], the intra-ocular pressure entry in data set [2] was “reduce intra-ocular pressure”. As for `CC(C)OC(=O)CCC/C=C\C[C@@H]1[C@@H](/C=C/[C@@H](O)COc2cccc(C(F)(F)F)c2)[C@H](O)C[C@@H]1O` [travoprost], in data set [2], the intra-ocular pressure result is “reduce intra-ocular pressure”.

On to `CC(C)OC(=O)CCC/C=C\C[C@@H]1[C@@H](CC[C@@H](O)CCc2ccccc2)[C@H](O)C[C@@H]1O` [latanoprost], for which, in data set [2], the intra-ocular pressure entry is given as “reduce intra-ocular pressure”. As to `O=C(O)CCC/C=C\C[C@@H]1[C@H](CNNC(=O)Nc2ccccc2)[C@H]2CC[C@@H]1O2` [SQ29548], the “noise-induced changes in cochlear blood flow and vascular conductance” value in data set [3] was “prevents these noise-induced changes”. For the compound `CCCCC[C@H](O)/C=C/[C@@H]1[C@@H](C/C=C\CCCC(=O)O)[C@@H](O)C[C@H]1O` [minprostin F2 alpha], the intra-ocular pressure result in data set [2] is given as “reduce intra-ocular pressure”. Consider `CCOc1ccc2c(c1)C1(CCC(OCCN3CCOCC3)CC1)C(=O)N2S(=O)(=O)c1ccc(C(=O)NC(C)(C)C)cc1OC` (stereo not drawn) [SR-1211463], for which, in data set [4], the “behaviour at D136A mutant VP2 receptor” value was “inverse agonist”.
